Data taken from article PMC5384962, “First-in-human studies of seletalisib, an orally bioavailable small-molecule PI3Kδ inhibitor for the treatment of immune and inflammatory diseases” (European Journal of Clinical Pharmacology, 2017).
Read-outs that look alike come from different tables or passages of the source.

Columns and labels:
[1] = Study-1 Part-A safety/tolerability (adverse events), single doses; conditions: for Deaths: Study-1 Part-A
Protocol: Study-1 (Part-A), comprised single doses of seletalisib (1, 5, 10 and 15 mg) administered to healthy subjects using an alternating panel approach (Table 1). Panel 1 consisted of 17 subjects and panel 2 of 18 subjects. In each panel subjects were randomised to one of three sequences and received different ascending doses of seletalisib or placebo over three (panel 1) or two (panel 2) periods (Table 1). In the third period of panel 1, a preliminary assessment of food effect was made, all subjects received seletalisib 5 mg 30 min after a high-fat, high-calorie meal.
Adverse events (AEs), serious AEs (SAEs), routine clinical laboratory parameters, vital signs and ECGs were monitored throughout the study periods and for ≤7 days post-administration of final-dose of seletalisib/placebo. The potential for seletalisib to cause gastrointestinal (GI) tract adverse effects was assessed by careful monitoring of subject reports of AEs such as abdominal pain, bloating, nausea, vomiting and alteration of bowel function (e.g. diarrhoea, constipation or bleeding). A formal safety review was conducted before each dose escalation. In Study-1 (Part-B), the potential for seletalisib to interfere with insulin signalling was assessed by monitoring blood glucose and C-peptide levels as part of the standard laboratory tests and by performance of oral glucose tolerance tests, measuring glucose and C-peptide levels, pre-dose and during exposure in all cohorts.
In each study, the primary population for analysis was the full analysis set (FAS), which comprised all subjects who had received ≥1 dose of seletalisib or placebo. PK analysis was performed on the PK per-protocol set (PK-PPS), which was a subset of the FAS consisting of subjects with no important protocol deviations likely to affect PK variables who received seletalisib; subjects who received placebo were excluded from this analysis. In Study-1 and Study-2, sample sizes of 57 and 36 subjects, respectively, were considered sufficient to permit assessment of the safety and tolerability of seletalisib and were not based on statistical considerations of power and sample size. In Study-1 (Part-A), a panel size of 15 subjects was selected to achieve good estimates of the PK/PD parameters.

[2] = Study-2 multiple-dose day 14 pharmacokinetics (plasma); format: in vivo, human; conditions: for CLss/F / Cmaxss / Vzss/F / AUC(0-t) / MRT / half-life / LF: geo mean (GeoCV%); for AUC(0-t) / MRT / half-life / Tmax: human, plasma, oral; for LF: linearity factor AUC(0–24)ss/AUC
From the text: These were phase I, randomised, double-blind, placebo-controlled studies designed to evaluate the safety, tolerability, PK and PD profiles of seletalisib following oral administration of single ascending doses and multiple ascending doses. Study-1 was a first-in-human, double-blind (sponsor-, investigator- and subject-blind) study that had two parts: Part-A evaluated seletalisib (single ascending doses) in healthy adults (including evaluation of food effects; Table 1); Part-B evaluated seletalisib (multiple ascending doses) in healthy adults and subjects with mild-to-moderate psoriasis. Study-2 was also a double-blind study of seletalisib (single and multiple ascending doses) in healthy subjects, which investigated higher doses.
Plasma concentrations of seletalisib were measured by high-performance liquid chromatography with tandem mass spectrometry (see Online Resource S1 for further details). The following PK parameters were determined in each study: AUC for seletalisib, maximum observed plasma concentration of seletalisib after a single dose (Cmax) and at steady-state (Cmaxss), time of occurrence of Cmax (tmax, obtained directly from the observed plasma concentration-time curves), minimum observed plasma concentration of seletalisib at steady-state immediately before the next dose would be administered (Ctrough), apparent terminal half-life, apparent volume of distribution after single dosing (Vz/F) and at steady-state (Vzss/F) and apparent total body clearance after single dosing (CL/F) and at steady-state (CLss/F). Accumulation factor based on AUC(0–24) [R(AUC)] and accumulation factor based on Cmax [R(Cmax)] were determined on multiple dose day 14. The following study-specific PK parameters were also determined: Study-1, total amount of seletalisib excreted in urine (Ae), renal clearance (CLr) and fraction of drug excreted in urine; Study-2, AUC(0–10) in BID dose groups, terminal elimination rate constant in plasma (λz), mean residence time (MRT) and linearity factor (LF [AUC(0–24)ss/AUC]).
Methods for the calculation of seletalisib PK parameters are detailed in Online Resource S1.
Seletalisib PK parameters were calculated via non-compartmental analysis methods from the individual concentration-time data using Phoenix WinNonlin version 6.2 (Certara, Princeton, NJ, USA). Urine (Study-1 only) and plasma PK parameters of seletalisib were reported for each subject and summarised by study part and dose group. Geometric mean and percentage geometric coefficient of variation (GeoCV%) were reported for all parameters except for tmax, which was reported using median and range. Dose proportionality for AUC and Cmax at Day_1 (Study-1 [Part-A & Part-B]; Study-2, single ascending dose-Day_1) and at steady state at Day_14 (Study-1 [Part-B]; Study-2, multiple ascending dose-Day_14) was examined via the power model and reported graphically. In Study-1, an assessment of food effect (fed versus fasted) was made for Cmax and AUC from the data for subjects who received the same dose in fed and fasted states in Part-A.

[3] = power model, Study-2 multiple-dose Day 14, QD groups

## [O-][n+]1cccc(-c2nc3c(Cl)cccc3cc2[C@@H](Nc2ncnc3cccnc23)C(F)(F)F)c1 [Seletalisib, seletalisib]
[1]; seletalisib total
  Deaths: 0 n (%)
[1]; single dose 1 mg
  Deaths: 0 n (%)
[1]; single dose 5 mg
  Deaths: 0 n (%)
[1]; single dose 5 mg fed
  Deaths: 0 n (%)
[1]; single dose 10 mg
  Deaths: 0 n (%)
[1]; single dose 15 mg
  Deaths: 0 n (%)
[1]; human, in vivo
  Any AE: 13 (39.4) n (%)
  Discontinuations due to AEs: 0 n (%)
  Drug-related AEs: 2 (6.1) n (%)
  Headache: 4 (12.1) n (%)
  Serious AEs: 0 n (%)
  Severe AEs: 0 n (%)
[1]; in vivo
  number of moderate-intensity AEs: three
[2]; Study-2, 30 mg QD, Day 14
  CLss/F: 2.13 (39.1) L/h
  Cmaxss: 897.8 (35.4) ng/mL
  Vzss/F: 64.8 (24.2) L
  MRT: 24.9 h
  half-life: 24.6 h
  LF: 1.275 (16.7)
[2]; Study-2, 45 mg QD, Day 14
  CLss/F: 2.65 (36.9) L/h
  Cmaxss: 1114 (27.7) ng/mL
  Vzss/F: 74.5 (27.9) L
  MRT: 25.1 h
  half-life: 28.5 h
  LF: 1.028 (26.4)
[2]; Study-2, 60 mg QD, Day 14
  CLss/F: 2.00 (32.5) L/h
  Cmaxss: 1957 (30.2) ng/mL
  Vzss/F: 56.7 (33.3) L
  MRT: 24.2 h
  half-life: 24.6 h
  LF: 1.160 (31.8)
[2]; Study-2, 90 mg QD, Day 14
  CLss/F: 2.33 (19.7) L/h
  Cmaxss: 2355 (17.8) ng/mL
  Vzss/F: 68.0 (23.9) L
  MRT: 24.7 h
  half-life: 24.6 h
  LF: 1.127 (25.9)
[2]; 30 mg, Study-2, 30 mg BID, Day 14, read-out: AUC(0–10)
  AUC(0-t): 10600 ng·h/mL
[2]; 30 mg, Study-2, 30 mg QD, Day 14, read-out: AUC(0–24)
  AUC(0-t): 14100 ng·h/mL
[2]; 30 mg, Study-2, 30 mg QD, Day 14, read-out: AUC(0–t)
  AUC(0-t): 24900 ng·h/mL
[2]; 45 mg, Study-2, 45 mg QD, Day 14, read-out: AUC(0–24)
  AUC(0-t): 17000 ng·h/mL
[2]; 45 mg, Study-2, 45 mg QD, Day 14, read-out: AUC(0–t)
  AUC(0-t): 30100 ng·h/mL
[2]; 60 mg, Study-2, 60 mg QD, Day 14, read-out: AUC(0–24)
  AUC(0-t): 30000 ng·h/mL
[2]; 60 mg, Study-2, 60 mg QD, Day 14, read-out: AUC(0–t)
  AUC(0-t): 51600 ng·h/mL
[2]; 90 mg, Study-2, 90 mg QD, Day 14, read-out: AUC(0–24)
  AUC(0-t): 38600 ng·h/mL
[2]; 90 mg, Study-2, 90 mg QD, Day 14, read-out: AUC(0–t)
  AUC(0-t): 67600 ng·h/mL
[2]; Study-2, 30 mg QD, Day 14, median (range), read-out: tmax
  Tmax: 4 h
[2]; Study-2, 45 mg QD, Day 14, median (range), read-out: tmax
  Tmax: 4 h
[2]; Study-2, 60 mg QD, Day 14, median (range), read-out: tmax
  Tmax: 3.5 h
[2]; Study-2, 90 mg QD, Day 14, median (range), read-out: tmax
  Tmax: 4 h
[2]; Study-2, day 14, fed, range across groups, read-out: time to peak plasma concentration
  Tmax: 3.5 to 4 h
[2]; [3]
  Dose proportionality of Cmaxss (ng/mL): Dose (beta), Estimate: 0.96
  Dose proportionality of Cmaxss (ng/mL): Intercept, Estimate: 3.52
